# From ChEMBL document CHEMBL4665665, “4-Aryl Pyrrolidines as Novel Orally Efficacious Antimalarial Agents. Part 2: 2-Aryl-N-(4-arylpyrrolidin-3-yl)acetamides” (ACS Med Chem Lett, 2019)
# Active and inactive are the calls of the source. The rule behind the calls is not given here.
# Legend:
# Plasmodium falciparum [1] = assay: Antimalarial activity against CQ-sensitive Plasmodium falciparum 3D7 incubated for 72 hrs by SYBR Green-1 dye based fluorescence assay; assay type: functional, organism-based
# Plasmodium chabaudi [2] = assay: Antimalarial activity against Plasmodium chabaudi ASS infected in NIH mouse assessed as inhibition of parasitemia at 30 mg/kg, po qd for 4 days starting from 4 hrs post-parasite inoculation and measured at 24 hrs after last-drug treatment by Peter's 4-day suppressive test relative to control; assay type: functional; conditions: 96 h
# [3] = Ratio of IC50 for antimalarial activity against CQ-sensitive Plasmodium falciparum 3D7 incubated for 72 hrs by SYBR Green-1 dye based fluorescence assay to Plasma concentration in NIH mouse infected with Plasmodium chabaudi ASS at 10 mg/kg, po qd for 4 days starting from 4 hrs post-parasite inoculation and measured at 24 hrs post-dosing on day 4 by LC/MS analysis
# [4] = Plasma concentration in NIH mouse infected with Plasmodium chabaudi ASS at 10 mg/kg, po qd for 4 days starting from 4 hrs post-parasite inoculation and measured at 24 hrs post-dosing on day 4 by LC/MS analysis; assay type: ADME, organism-based; conditions: dose 10 mg/kg/day, time 4 day
# [5] = Plasma concentration in NIH mouse infected with Plasmodium chabaudi ASS at 10 mg/kg, po qd for 4 days starting from 4 hrs post-parasite inoculation and measured at 6 hrs post-dosing on day 4 by LC/MS analysis; assay type: ADME, organism-based; conditions: dose 10 mg/kg/day, time 4 day
# [6] = Plasma concentration in NIH mouse infected with Plasmodium chabaudi ASS at 10 mg/kg, po qd for 4 days starting from 4 hrs post-parasite inoculation and measured at 1 hr post-dosing on day 4 by LC/MS analysis; assay type: ADME, organism-based; conditions: dose 10 mg/kg/day, time 4 day
# [7] = Apparent volume of distribution in KM mouse at 2 mg/kg, iv administered as cassette dosing measured up to 24 hrs by LC/MS analysis; assay type: ADME, organism-based; conditions: in vivo, read-out: Vz
# [8] = Half life in KM mouse at 2 mg/kg, iv administered as cassette dosing measured up to 24 hrs by LC/MS analysis; assay type: ADME, organism-based; conditions: in vivo
# Cytochrome P450 2C19 = Cytochrome P450 2C19 (Homo sapiens, UniProt P33261); assay: Inhibition of recombinant human CYP2C19 expressed in baculovirus infected insect cells using s-mephenytoin as substrate incubated for 30 mins in presence of NADPH-regenerating system by fluorescence based assay; assay type: ADME
# [9] = Apparent clearance in KM mouse at 2 mg/kg, iv administered as cassette dosing measured up to 24 hrs by LC/MS analysis; assay type: ADME, organism-based; conditions: in vivo
# Cytochrome P450 2C9 = Cytochrome P450 2C9 (Homo sapiens, UniProt P11712); assay: Inhibition of recombinant human CYP2C9 expressed in baculovirus infected insect cells using tolbutamide as substrate incubated for 30 mins in presence of NADPH-regenerating system by fluorescence based assay; assay type: ADME
# Cytochrome P450 2D6 = Cytochrome P450 2D6 (Homo sapiens, UniProt P10635); assay: Inhibition of recombinant human CYP2D6 expressed in baculovirus infected insect cells using dextromethorphan as substrate incubated for 30 mins in presence of NADPH-regenerating system by fluorescence based assay; assay type: ADME
# Cytochrome P450 1A2 = molecular target: T1, Cytochrome P450 1A2 (Homo sapiens, UniProt P05177); assay: Inhibition of recombinant human CYP1A2 expressed in baculovirus infected insect cells using phenacetin as substrate incubated for 30 mins in presence of NADPH-regenerating system by fluorescence based assay; assay type: ADME
# T1 sequence (P05177 whole entry): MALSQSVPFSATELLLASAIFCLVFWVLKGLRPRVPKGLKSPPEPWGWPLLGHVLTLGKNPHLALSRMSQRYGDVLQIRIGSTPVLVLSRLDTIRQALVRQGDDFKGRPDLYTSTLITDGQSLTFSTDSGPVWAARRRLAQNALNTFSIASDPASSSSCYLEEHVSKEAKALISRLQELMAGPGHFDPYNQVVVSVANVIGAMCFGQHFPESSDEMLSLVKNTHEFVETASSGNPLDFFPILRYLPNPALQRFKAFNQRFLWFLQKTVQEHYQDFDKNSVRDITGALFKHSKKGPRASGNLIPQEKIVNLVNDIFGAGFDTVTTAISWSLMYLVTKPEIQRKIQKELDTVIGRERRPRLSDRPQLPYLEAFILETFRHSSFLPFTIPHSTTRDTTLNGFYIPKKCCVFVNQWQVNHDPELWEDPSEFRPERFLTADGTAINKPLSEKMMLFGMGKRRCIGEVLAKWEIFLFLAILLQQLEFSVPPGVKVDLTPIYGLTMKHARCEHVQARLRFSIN
# Cytochrome P450 3A4 = Cytochrome P450 3A4 (Homo sapiens, UniProt P08684); assay: Inhibition of recombinant human CYP3A4 expressed in baculovirus infected insect cells using midazolam as substrate incubated for 30 mins in presence of NADPH-regenerating system by fluorescence based assay; assay type: ADME
# hERG = assay: Selectivity ratio of IC50 for human ERG incubated for 2 hrs by fluorescence polarization assay to IC50 for CQ-sensitive Plasmodium falciparum 3D7 incubated for 72 hrs by SYBR Green-1 dye based fluorescence assay; assay type: toxicity; conditions: read-out: Ratio IC50
# [10] = molecular target: Beta-secretase 1 (Homo sapiens) (UniProt P56817); assay: Inhibition of recombinant human BACE1 using Mca-SEVNLDAEFRK(Dnp)RR-NH2 fluorogenic peptide as substrate incubated for 60 mis by fluorescence based assay; conditions: time 60.0 min
# [11] = molecular target: Voltage-gated inwardly rectifying potassium channel KCNH2 (Homo sapiens, UniProt Q12809); assay: Displacement of Tracer Red from human ERG incubated for 2 hrs by fluorescence polarization assay
# Plasmodium falciparum [12] = assay: Inhibition of Plasmodium falciparum plasmepsin 4 using PM-2 peptide substrate incubated for 60 mis by fluorescence based assay; conditions: time 60.0 min
# [13] = molecular target: Plasmepsin II (Plasmodium falciparum) (UniProt P46925); assay: Inhibition of Plasmodium falciparum plasmepsin 2 using PM-2 peptide substrate incubated for 60 mis by fluorescence based assay; conditions: time 60.0 min
# Plasmodium falciparum [14] = assay: Antimalarial activity against multidrug resistant Plasmodium falciparum Dd2 incubated for 72 hrs by SYBR Green-1 dye based fluorescence assay; assay type: functional, organism-based; conditions: Dd2, 72 h
# Plasmodium chabaudi [15] = assay: Antimalarial activity against Plasmodium chabaudi ASS infected in NIH mouse assessed as inhibition of parasitemia at 10 mg/kg, po qd for 4 days starting from 4 hrs post-parasite inoculation and measured at 24 hrs after last-drug treatment by Peter's 4-day suppressive test relative to control; assay type: functional; conditions: 96 h
# HepG2 = assay: Cytotoxicity against human HepG2 cells assessed as cell viability at 5 uM incubated for 72 hrs by PrestoBlue cell viability reagent based assay; conditions: hepg2, 72 h
# [16] = Plasmodium falciparum, 3D7, 72 h
# Sequence of Beta-secretase 1 (Homo sapiens) (P56817 whole entry): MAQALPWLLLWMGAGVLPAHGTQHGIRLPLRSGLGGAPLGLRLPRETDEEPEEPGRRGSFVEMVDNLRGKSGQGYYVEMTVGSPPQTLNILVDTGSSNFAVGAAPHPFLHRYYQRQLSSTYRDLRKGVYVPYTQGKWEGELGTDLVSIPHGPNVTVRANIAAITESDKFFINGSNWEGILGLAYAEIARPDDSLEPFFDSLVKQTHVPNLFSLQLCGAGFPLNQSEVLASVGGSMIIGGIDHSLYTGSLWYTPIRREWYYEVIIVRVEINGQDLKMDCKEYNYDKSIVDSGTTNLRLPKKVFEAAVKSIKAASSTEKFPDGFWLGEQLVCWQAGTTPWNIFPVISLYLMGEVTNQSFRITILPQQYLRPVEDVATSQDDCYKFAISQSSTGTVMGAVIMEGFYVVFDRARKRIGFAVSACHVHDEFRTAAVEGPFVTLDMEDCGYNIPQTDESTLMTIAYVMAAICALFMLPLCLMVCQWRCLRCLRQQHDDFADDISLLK
# Sequence of Plasmepsin II (Plasmodium falciparum) (P46925 125-453 limits assumed): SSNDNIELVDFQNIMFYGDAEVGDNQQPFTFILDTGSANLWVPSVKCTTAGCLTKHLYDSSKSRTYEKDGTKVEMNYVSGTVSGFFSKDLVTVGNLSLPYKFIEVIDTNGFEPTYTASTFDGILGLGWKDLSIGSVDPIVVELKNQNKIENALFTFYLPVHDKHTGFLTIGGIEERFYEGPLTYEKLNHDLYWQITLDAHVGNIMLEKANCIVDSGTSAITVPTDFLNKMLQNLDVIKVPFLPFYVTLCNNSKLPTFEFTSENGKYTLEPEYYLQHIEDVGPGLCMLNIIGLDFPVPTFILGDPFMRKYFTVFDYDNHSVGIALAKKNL
# Sequence of Cytochrome P450 2C9 (P11712 whole entry): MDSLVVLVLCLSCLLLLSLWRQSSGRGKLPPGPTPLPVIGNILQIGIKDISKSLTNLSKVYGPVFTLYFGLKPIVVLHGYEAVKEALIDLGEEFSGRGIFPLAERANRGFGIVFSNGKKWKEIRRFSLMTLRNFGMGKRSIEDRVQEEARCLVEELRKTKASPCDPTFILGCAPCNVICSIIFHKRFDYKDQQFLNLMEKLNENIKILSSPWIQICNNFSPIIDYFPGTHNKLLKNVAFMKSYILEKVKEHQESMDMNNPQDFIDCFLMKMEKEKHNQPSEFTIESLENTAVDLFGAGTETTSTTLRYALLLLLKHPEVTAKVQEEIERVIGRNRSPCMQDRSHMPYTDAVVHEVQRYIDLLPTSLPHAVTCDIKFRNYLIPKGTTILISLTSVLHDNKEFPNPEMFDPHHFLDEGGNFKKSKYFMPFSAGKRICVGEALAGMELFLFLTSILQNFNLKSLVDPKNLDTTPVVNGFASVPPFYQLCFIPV
# Sequence of Cytochrome P450 2D6 (P10635 whole entry): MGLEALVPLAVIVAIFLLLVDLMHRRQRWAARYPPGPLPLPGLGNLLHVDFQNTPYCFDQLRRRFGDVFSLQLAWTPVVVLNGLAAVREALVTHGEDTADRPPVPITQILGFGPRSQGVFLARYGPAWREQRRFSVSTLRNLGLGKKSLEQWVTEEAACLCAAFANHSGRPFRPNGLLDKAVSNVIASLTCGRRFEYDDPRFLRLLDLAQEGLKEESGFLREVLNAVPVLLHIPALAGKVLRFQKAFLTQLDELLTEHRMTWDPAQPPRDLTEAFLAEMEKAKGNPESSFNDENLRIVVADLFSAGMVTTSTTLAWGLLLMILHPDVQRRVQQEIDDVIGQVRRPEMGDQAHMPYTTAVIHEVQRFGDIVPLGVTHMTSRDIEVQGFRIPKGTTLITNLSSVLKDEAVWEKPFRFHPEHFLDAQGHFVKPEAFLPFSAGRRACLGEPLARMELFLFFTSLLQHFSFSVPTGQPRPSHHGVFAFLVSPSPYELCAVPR
# Sequence of Voltage-gated inwardly rectifying potassium channel KCNH2 (Q12809 whole entry): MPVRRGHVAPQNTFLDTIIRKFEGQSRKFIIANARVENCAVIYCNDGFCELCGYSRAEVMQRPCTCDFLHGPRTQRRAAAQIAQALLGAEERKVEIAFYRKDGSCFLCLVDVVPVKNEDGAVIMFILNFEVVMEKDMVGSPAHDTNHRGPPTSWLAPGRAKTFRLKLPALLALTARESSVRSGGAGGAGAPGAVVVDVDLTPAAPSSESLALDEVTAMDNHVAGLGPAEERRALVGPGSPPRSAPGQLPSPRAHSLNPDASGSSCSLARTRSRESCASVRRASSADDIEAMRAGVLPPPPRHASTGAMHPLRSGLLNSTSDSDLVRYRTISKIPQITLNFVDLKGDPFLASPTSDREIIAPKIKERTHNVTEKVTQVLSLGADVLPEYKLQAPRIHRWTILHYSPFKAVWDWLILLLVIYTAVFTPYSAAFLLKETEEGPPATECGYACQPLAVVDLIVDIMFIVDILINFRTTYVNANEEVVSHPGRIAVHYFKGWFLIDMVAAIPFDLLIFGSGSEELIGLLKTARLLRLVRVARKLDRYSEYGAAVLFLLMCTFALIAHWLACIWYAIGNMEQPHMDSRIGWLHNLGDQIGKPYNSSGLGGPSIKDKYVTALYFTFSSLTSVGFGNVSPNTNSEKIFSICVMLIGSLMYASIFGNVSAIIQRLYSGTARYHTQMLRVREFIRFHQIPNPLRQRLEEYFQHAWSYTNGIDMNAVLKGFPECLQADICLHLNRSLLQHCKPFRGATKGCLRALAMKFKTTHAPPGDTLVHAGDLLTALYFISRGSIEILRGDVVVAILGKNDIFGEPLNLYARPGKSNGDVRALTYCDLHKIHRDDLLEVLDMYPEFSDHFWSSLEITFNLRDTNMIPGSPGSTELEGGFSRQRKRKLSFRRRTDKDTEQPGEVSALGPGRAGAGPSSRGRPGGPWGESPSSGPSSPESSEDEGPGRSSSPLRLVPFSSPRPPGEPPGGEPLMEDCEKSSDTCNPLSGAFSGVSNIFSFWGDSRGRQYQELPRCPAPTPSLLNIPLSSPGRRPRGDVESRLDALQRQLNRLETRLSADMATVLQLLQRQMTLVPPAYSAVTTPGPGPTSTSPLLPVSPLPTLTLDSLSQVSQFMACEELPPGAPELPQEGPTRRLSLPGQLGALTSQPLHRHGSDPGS
# Sequence of Cytochrome P450 2C19 (P33261 whole entry): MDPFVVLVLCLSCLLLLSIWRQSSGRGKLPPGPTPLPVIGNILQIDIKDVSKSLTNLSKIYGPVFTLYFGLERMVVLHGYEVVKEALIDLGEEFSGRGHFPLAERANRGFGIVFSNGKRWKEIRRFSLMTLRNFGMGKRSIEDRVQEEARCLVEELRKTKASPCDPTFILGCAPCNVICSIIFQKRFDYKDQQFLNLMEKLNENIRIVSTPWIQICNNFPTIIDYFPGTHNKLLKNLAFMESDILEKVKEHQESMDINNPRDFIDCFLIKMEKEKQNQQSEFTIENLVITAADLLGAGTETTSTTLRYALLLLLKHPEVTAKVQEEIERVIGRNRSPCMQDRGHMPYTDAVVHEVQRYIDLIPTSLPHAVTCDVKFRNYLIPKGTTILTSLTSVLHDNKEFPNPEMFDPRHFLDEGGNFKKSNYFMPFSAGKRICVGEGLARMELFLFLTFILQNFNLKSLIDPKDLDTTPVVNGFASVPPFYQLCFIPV
# Sequence of Cytochrome P450 3A4 (P08684 whole entry): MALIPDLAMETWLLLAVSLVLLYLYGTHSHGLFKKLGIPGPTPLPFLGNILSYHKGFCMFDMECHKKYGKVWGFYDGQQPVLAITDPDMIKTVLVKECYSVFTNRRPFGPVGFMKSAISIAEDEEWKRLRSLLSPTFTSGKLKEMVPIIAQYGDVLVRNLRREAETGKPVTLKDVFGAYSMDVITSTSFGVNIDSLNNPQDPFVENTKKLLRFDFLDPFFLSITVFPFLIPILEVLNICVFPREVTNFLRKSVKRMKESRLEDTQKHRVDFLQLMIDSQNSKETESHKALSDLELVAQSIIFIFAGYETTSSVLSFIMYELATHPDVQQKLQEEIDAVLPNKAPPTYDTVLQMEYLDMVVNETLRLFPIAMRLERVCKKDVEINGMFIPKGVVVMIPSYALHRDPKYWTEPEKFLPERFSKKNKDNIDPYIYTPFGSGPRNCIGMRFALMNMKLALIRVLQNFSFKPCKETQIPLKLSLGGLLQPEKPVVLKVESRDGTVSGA
structure (smiles),measurement,setting,value
CN(C)c1ccc(CNC(=O)[C@H]2CNC[C@@H]2c2ccc(C(F)(F)F)cc2)cc1 (racemic),IC50,Plasmodium falciparum [1]; [16],190 nM
CN(C)c1ccc(CC(=O)N[C@@H]2CNC[C@H]2c2cc3ccccc3o2)cc1,IC50,Plasmodium falciparum [1]; [16],140 nM
C[C@H](NC(=O)[C@H]1CNC[C@@H]1c1ccc(C(F)(F)F)cc1)c1ccc(N(C)C)cc1,inhibition in vivo at 30 mg/kg/day,Plasmodium chabaudi [2],92.2%
COc1ccc(CC(=O)N[C@H]2CNC[C@@H]2c2ccc(C(F)(F)F)cc2)cn1 (racemic),IC50,Plasmodium falciparum [1]; [16],2200 nM
Cc1ccc(CC(=O)N[C@H]2CNC[C@@H]2c2ccc(C(F)(F)F)cc2)nc1 (racemic),IC50,Plasmodium falciparum [1]; [16],1600 nM
CN(C)c1cccc(CC(=O)N[C@H]2CNC[C@@H]2c2ccc(C(F)(F)F)cc2)c1 (racemic),IC50,Plasmodium falciparum [1]; [16],230 nM
CN(C)c1ccc(CC(=O)N[C@H]2CNC[C@@H]2c2ccc(S(F)(F)(F)(F)F)cc2)cc1,IC50,Plasmodium falciparum [1]; [16],1200 nM
CN(C)c1ccc(CC(=O)N(C)[C@@H]2CNC[C@H]2c2ccc(C(F)(F)F)cc2)cc1,IC50,Plasmodium falciparum [1]; [16],200 nM
CN(C)c1ccc(CC(=O)N[C@@H]2CNC[C@H]2c2ccc(C(F)(F)F)cc2)cc1,Ratio,[3],6
same,concentration at 96 h,[4],7.4 nM
same,concentration at 96 h,[5],181 nM
same,concentration at 96 h,[6],255 nM
same,Vd,[7],4.2 L/kg
same,half-life,[8],5.6 h
same,IC50,Cytochrome P450 2C19,45400 nM
same,clearance,[9],7.9 mL/min/kg
same,IC50,Cytochrome P450 2C9,98100 nM
same,IC50,Cytochrome P450 2D6,24500 nM
same,IC50,Cytochrome P450 1A2,> 100000 nM
same,IC50,Cytochrome P450 3A4,871 nM
same,selectivity ratio at 2 h,hERG,49
same,inhibition,[10],inactive
same,IC50,[11],5910 nM
same,inhibition,Plasmodium falciparum [12],inactive
same,inhibition,[13],inactive
same,IC50,Plasmodium falciparum [1]; [16],120 nM
same,IC50,Plasmodium falciparum [14],78 nM
same,inhibition in vivo at 10 mg/kg/day,Plasmodium chabaudi [15],61.2%
same,Activity,HepG2,Non-Toxic
CN1C[C@@H](N(C)C(=O)Cc2ccc(N(C)C)cc2)[C@H](c2ccc(C(F)(F)F)nc2)C1 (racemic),IC50,Plasmodium falciparum [1]; [16],1400 nM
Cc1ccc(CC(=O)N[C@H]2CNC[C@@H]2c2ccc(C(F)(F)F)cc2)cc1 (racemic),IC50,Plasmodium falciparum [1]; [16],230 nM
CN(C)c1ccc(CCC(=O)N[C@H]2CNC[C@@H]2c2ccc(C(F)(F)F)cc2)cc1 (racemic),IC50,Plasmodium falciparum [1]; [16],1400 nM
CN(C)c1ccc(CC(=O)N[C@@H]2CNC[C@H]2c2cc3ccccc3s2)cc1,IC50,Plasmodium falciparum [1]; [16],150 nM
CN(C)c1ccc(CC(=O)N[C@@H]2CNC[C@H]2c2cc3cc(Cl)ccc3o2)cc1,IC50,Plasmodium falciparum [1]; [16],1000 nM
CN(C)c1ccc(CC(=O)N[C@H]2CNC[C@@H]2c2ccc(C(F)(F)F)cc2)cc1,IC50,Plasmodium falciparum [1],860 nM
O=C(Cc1ccccc1)N[C@H]1CNC[C@@H]1c1ccc(C(F)(F)F)cc1 (racemic),IC50,Plasmodium falciparum [1]; [16],2000 nM
CN(C)c1ccc(CC(=O)N[C@@H]2CNC[C@H]2c2ccc(C(C)(F)F)nc2)cc1,IC50,Plasmodium falciparum [1]; [16],60 nM
CN(C)c1ccc(CC(=O)N[C@@H]2CNC[C@H]2c2ccc(C(F)(F)C(F)(F)F)cc2)cc1,IC50,Plasmodium falciparum [1]; [16],140 nM
CN(C)c1ccc(CC(=O)N[C@@H]2CNC[C@H]2c2ccc(-c3ccccc3)cc2)cc1,IC50,Plasmodium falciparum [1]; [16],4600 nM
